Experimental data published in US8853188B2, “Compositions and methods for cancer treatment” (Women and Infants Hospital of RI, Inc., priority 2005, dated 2014).
Entries after “also recorded” stand apart in the source; their conditions may differ.

Assays:
AKT = test: Western Blot analysis of AKT phosphorylation; type: cell-based; conditions: neuroblastoma cells
Procedure: (§1) Materials and methods. Proliferation was measured by MTS and BrdU incorporation assays. Apoptosis was assessed by DNA fragmentation, Cell Death Detection ELISA and caspase-3-assays. Effect of B3CD on TrkB signaling by BDNF was assessed by Western Blot analysis of AKT and ERK phosphorylation. The effect on angiogenesis was determined by chick chorioallantoic membrane (CAM) assay and aortic ring assay.
(§2) Neuroblastoma cells were treated with B3CD for 48 hrs. […] AT 0.5 nM, B3CD inhibited >50% (p<0.035) and >90% at […] (p<0.01) viability and proliferation respectively.

panel of cancer cells = test: Antiproliferative and cytotoxic activity on a panel of cancer cells (MTS, 96 well plates); type: cell-based
Description: A panel of cancer cells is used to evaluate the antiproliferative and cytotoxic activities of B3CD and related analogs. The cells include colon (Colo), breast (MCF-7 and MDA-MB-231), lung (A549), prostate PC3 and LNCaP), melanoma (SK-MEL-31), renal (Caki-1), ovarian (OVCAR-3), bladder (T24), pancreatic (BxPC-3), hepatocarcinoma (Hep3B), neuroblastoma (SH-SY5Y), glioblastoma (SNB-19), medulloblastoma (D283 Med), skin (LS123), squamous cell carcinoma (Scc-15), acute promyelocytic leukemia (APL), myeloblastic (HL-60) and myelomonocytic (U937).
The anticancer activity testing will be carried out by high throughput screening. The cancer cells will be cultured in 96 well plates and treated with the library. B3CD has been tested in this system and was effective at a 200 nM dose. For general screening, 2-200 nM doses will be used. Cells will be treated with the compounds for 12, 24, 48 and 72 hours. A 96 well plate format allows testing a large number of compounds simultaneously. An MTS based colorimetric method of evaluation of proliferation will be utilized, which is widely used in cancer drug discovery. The fingerprint of profiled drugs using 60 cell-line screening program by NCl using COMPARE algorithm (Paull K D, Shoemaker R H, Hodes L, Monks A, Scudiero D A, Rubinstein L, Plowman J, Boyd M R. Display and analysis of patterns of differential activity of drugs against human tumor cell lines: development of mean graph and COMPARE algorithm. J Natl Cancer Inst 1989; 81:1088).
as §1

SMS-KCNR cells = test: Proliferation of apoptosis-resistant NB cells; type: cell-based; conditions: data not shown
Procedure: NB is characterized with defective apoptotic pathways. […] Neuronal (N-) type SH-SY5Y and IMR-32 cells, and stromal (S-) type SMS-KCNR cells which are resistant to apoptosis were used. […] A defect in caspase-8 or its activation causes resistance to apoptosis and in turn to chemotherapy in all these cells. On the other hand, these cells carry intact intrinsic apoptotic pathway, and executioner caspase-3 is activated by caspase-9 route.
(§3) In depth studies were carried out to assess the activation of intrinsic and extrinsic apoptotic pathways. […] Caspase-9 was activated by B3CD in these cells (FIG. 10B), indicating an active role of intrinsic pathway of apoptosis. […] However, caspase-8 was undetectable in IMR-32 and SH-SY5Y cells.

macrophage cells = test: Proliferation (MTS, BrdU), FIG. 3; type: cell-based
Procedure: as §1
(§4) B3CD was tested on the panel of cell described above. […] Such cell-type specificity is not uncommon. […] However, keratinocytes were not affected by B3CD (FIG. 4A; Lane-2). In addition, caspase-3 activity was increased by B3CD (FIG. 4B). These studies indicated an underlying apoptotic mechanism in the anticancer activity of B3CD.

pancreatic cells = test: Proliferation (MTS, BrdU), FIG. 3; type: cell-based
Procedure: as §1, §4

caspase-3 [1] = test: Caspase-3 activation with specific substrate in SK-N-SH cells; type: cell-based; conditions: 250 nM, compared to vehicle treated control
Procedure: Caspases are integral to apoptosis in cells. Following the treatment of SK-N-SH cells with 250 nM B3CD, activation of caspase-3 was measured by using specific substrate.

keratinocytes = test: Apoptosis by DNA fragmentation, FIG. 4A; type: cell-based
Procedure: as §1, §4

ovarian cancer cells = test: Apoptosis by DNA fragmentation, FIG. 4A; type: cell-based
Procedure: as §1, §4

prostate cancer cells = test: Apoptosis by DNA fragmentation, FIG. 4A; type: cell-based
Procedure: as §1, §4

SK-N-SH cells [2] = test: Cell cycle analysis; type: cell-based; conditions: 400 nm
[3] = test system: VEGF induced angiogenesis; test: Chick chorioallantoic membrane (CAM) assay; type: in vivo
Procedure: as §1
The antiproliferative effect of B3CD on endothelial cells was further investigated.
The ability of B3CD to inhibit angiogenesis/neovascularization was tested. Preliminary studies were carried out using chick chorioallantoic membrane (CAM) assay. Calcidiol or B3CD were deposited in the presence of growth factor (VEGF) and deposited on the CAM and eggs were incubated for 3 days at 37° C. (3% CO2). The control carried the growth factor alone. VEGF induces angiogenesis which results in sprouting of capillaries from the large vessels. The compounds diffuse out and any inhibitory molecule would reduce the growth of blood vessel network.

cytochrome-c = test: Cyt-C immunoblot of cytosol of NB cells; type: cell-based; conditions: SMS-KCNR, SH-SY5Y and IMR-32 cells
Procedure: FIG. 10C. Cyt-C immunoblot of cytosol of NB cells: A and D-SMS-KCNR; B and E-5H-SY5Y and C and F-IMR-32.
as §3

caspase-3 [4] = test: Caspase-3 activation in endothelial cells; type: cell-based; conditions: data not shown
Description: Apoptosis in EC by B3CD was studied by DNA fragmentation and caspase-3 activation analyses as before.

ERK1/2 = test: Western Blot analysis of ERK phosphorylation; type: cell-based; conditions: neuroblastoma cells
Procedure: as §1, §2

caspase-8 = test: Caspase-8 immunoblot in NB cells; type: cell-based; conditions: SMS-KCNR cells
Procedure: FIG. 10D. Caspase-8 immunoblot.
as §3
Although caspase-8 was detected in SMS-KCNR cells, it was not activated by B3CD (FIG. 10D). Actin immunoblotting was used as loading control in the above studies (data not shown).

SK-N-SH cells [5] = test: Cell viability by MTS assay; type: cell-based; conditions: 48 hours
Procedure: SK-N-SH and SH-SY5Y neuroblastic cells were treated with increasing doses of calcidiol or B3CD (0, 25, 50, 100, 200, 400 and 800 nM) for 48 hours. Cell viability was assessed by MTS assay and proliferation was determined by BrdU incorporation assay.

caspase-3 [6] = test: Caspase-3 immunoblot in NB cells; type: cell-based; conditions: SMS-KCNR, IMR-32 and SH-SY5Y cells
Procedure: FIG. 10A. Caspase-3 immunoblot.
as §3

caspase-3 [7] = test: Caspase-3 assay in neuroblastic cells, FIG. 4B; type: cell-based
Procedure: as §1, §4

SMILES: C=C1CC[C@H](OC(=O)CBr)C/C1=C/C=C1\CCC[C@]2(C)[C@@H]([C@H](C)CCCC(C)(C)O)CC[C@@H]12 [B3CD, bromoacetic acid 3-{2-[1-(5-hydroxy-1,5-dimethyl-hexyl)-7a-methyl-octahydro-inden-4-ylidene]-ethylidene}-4-methylene-cyclohexyl ester]
- phosphorylation of AKT (AKT): inhibited phosphorylation
- anticancer activity in high throughput screening system (panel of cancer cells; 200 nM dose): effective
- cytotoxicity (panel of cancer cells; preliminary studies): exhibits cytotoxicity
- inhibition of proliferation (SMS-KCNR cells): dose dependent inhibition of proliferation
- effect on proliferation (macrophage cells): did not show an effect on proliferation
- effect on proliferation (pancreatic cells): did not show an effect on proliferation
- increase of caspase-3 activity (caspase-3 [1]): ~6 fold
- DNA laddering (apoptosis) (keratinocytes): not affected
- DNA laddering (apoptosis) (ovarian cancer cells): distinct DNA laddering characteristic of apoptosis
- DNA laddering (apoptosis) (prostate cancer cells): distinct DNA laddering characteristic of apoptosis
- apoptotic cells (SK-N-SH cells [2]; 7% in control): 45%
- cell cycle effect (SK-N-SH cells [2]; data not shown): G0/G1 block, inhibition of S-phase
- inhibition of angiogenesis / neovascularization (in words) ([3]; VEGF present): inhibited VEGF induced angiogenesis; also recorded: inhibit
- inhibition of neovascularization ([3]; compared to untreated controls): ~60%
- density of fine capillary network ([3]; versus VEGF control eggs): markedly reduced
- cytochrome-c release into cytosol (cytochrome-c): released into cytosol
- increase in caspase-3 activity (caspase-3 [4]): 5 fold
- phosphorylation of ERK1/2 (ERK1/2): inhibited phosphorylation
- caspase-8 activation (immunoblot) (caspase-8): not activated
- viability of SK-N-SH cells (in words) (SK-N-SH cells [5]; 0-800 nM): dose dependent decrease
- viability at 0.2 µM (SK-N-SH cells [5]; Homo sapiens, SK-N-SH, 200 nM): < 20%
- caspase-3 activation (immunoblot) (caspase-3 [6]): activated
- caspase-3 activity (caspase-3 [7]): increased; also recorded: activated caspase-3
